1 substance from patent publication US20020168365A1, “Method for modulating granzyme B uptake and for identifying modulators thereof” (priority 2000, published 2002) can be followed below.

In one assay the test system is Jurkat cells. The experiment in a line: GrB binding assay (flow cytometry, labeled grB at 4° C.). The arrangement: species or system human. Here is the method: Cells (1-2×10^5) were washed twice and resuspended in buffer before the addition of grB-biotin or -OG in a final volume of 20 μl for a 30-60 min incubation and washed again twice. In the case of grB-biotin, cells were then incubated with streptavidin-cychrome for 20 min and washed twice. Unless otherwise indicated, ˜25 ng grB-biotin or -OG was used to label cells. All steps of the assay were carried out at 4° C. to prevent intracellular uptake of grB. PBS/0.1% BSA buffer was used throughout the procedure. In some cases, results are presented as the relative MFI, which represents the MFI of the grB-labeled population minus the MFI of the unlabeled population.
GrB was treated for 1 hr at 37° C. in a phosphate-free (saline) or a high-phosphate (64.5 mM Na2HPO4.7H2O, 21 mM KH2PO4) buffer with calf intestinal alkaline phosphatase (1-10 U), 20 nM of the 37 kDa catalytic subunit of recombinant protein phosphatase-1 (Bagu et al, 1997), or with vehicle control. Cells were then incubated with the treated grB at 4° C. for 30-60 min. For the TUNEL or annexin V assays, cells were then washed twice before incubation at 37° C. with AD.
M6P and various other monosaccharides at different concentrations were added to cells for 15 min at 4° C. before the addition of labeled grB, or at room temperature before the addition of grB and AD.
GrB was incubated with sCI-MPR at various concentrations in PBS/0.1% BSA for 30 min at 4° C. Subsequently, cells were incubated with grB/sCI-MPR for 30-60 min at 4° C. and washed twice, before analysis of binding, or before the addition of AD for TUNEL and annexin V analysis.

A further assay concerns CD-MPR^+ cells. The experiment in a line: GrB uptake (unpublished findings). Format: cell-based, murine L cells transfected with human CD-MPR. The note with it: CD-MPR-overexpressing CD-MPR^+ cells.
Assay [1] concerns breast carcinoma cell lines (T47-D, MDA-MB-231, SK-BR-3, MCF-7). The experiment in a line: grB/AD-mediated apoptosis (TUNEL, annexin V) in carcinoma cell lines. Format: cell-based, human. On the procedure:
Cells were resuspended at 10^6 cells/ml in 0.1% BSA/DMEM. Adenovirus (10 PFU/cell) and granzyme B (grB) were added directly to the cell suspension. Cells were incubated at 37° C. for 3 h. For staurosporine killing, cells were resuspended at 10^6 cells/ml in their normal growth medium and staurosporine (2.5 μM) was added directly to the cell suspension. Cells were incubated at 37° C. for 2, 4 and 8 h. DNA fragmentation was monitored by flow cytometric analysis via the terminal deoxynucleotidyltransferase-mediated dUTP-biotin nick end labeling (TUNEL) method. Flow cytometric analysis was performed on a Becton Dickinson FACScanθ flow cytometer equipped with an argon-ion laser with 15 mW of excitation at 488 nm. Emission wavelengths were detected through the FL1 channel. Data were acquired on 10,000 cells per sample with light scatter signals at linear gain and fluorescence signals at logarithmic gain. Percent specific TUNEL positive cells was calculated as follows: [(% positive labeling cells with grB and AD−% positive labeling cells without grB and AD)/(AD−% positive labeling cells without grB and AD)]×100. Phosphatidylserine externalization was monitored using the ApoAlertθ annexin V apoptosis kit (Clontech) according to the protocol provided by the manufacturer. Flow cytometric analysis was performed on a Becton Dickinson FACScanθ flow cytometer equipped with an argon-ion laser with 15 mW of excitation at 488 nm. Emission wavelengths were detected through the FL1 channel. Data were acquired on 10,000 cells per sample with light scatter signals at linear gain and fluorescence signals at logarithmic gain. Percent specific Annexin V positive cells was calculated as follows: [(% positive labeling cells with grB and AD−% positive labeling cells without grB and AD)/(AD−% positive labeling cells without grB and AD)]×100.

Another assay relates to procaspase-3. The experiment in a line: Caspase 3 cleavage by Western blotting. The note with it: grB (18 nM) and AD, 3 hr. Format: cell-based, human. Here is the method: Cells were resuspended at 10^6 cells/ml in 0.1% BSA/DMEM. Adenovirus (10 PFU/cell) and granzyme B (grB) were added directly to the cell suspension. Cells were incubated at 37° C. for 3 h. For staurosporine killing, cells were resuspended at 10^6 cells/ml in their normal growth medium and staurosporine (2.5 μM) was added directly to the cell suspension. Cells were incubated at 37° C. for 2, 4 and 8 h. Cellular lysates were collected by directly harvesting 10^5 cells into 100 μl of sodium dodecyl sulfate-polyacrylamide gel electrophoresis (SDS-PAGE) gel loading buffer and subjected to SDS-PAGE analysis. Proteins were transferred to nitrocellulose (Micron Separations Inc.) by using a semidry transfer apparatus (Tyler Corp.) for 1 h at 150 mA. Membranes were blocked in phosphate-buffered saline (PBS) containing 0.1% Tween 20 (ICN Biomedicals Inc.) and 5% skim milk for 16 h. Caspase 3 was detected using polyclonal rabbit anti-caspase 3 at a dilution of 1:10,000. The membrane was incubated with the primary antibody for 2 h, after which the blot was washed three times in PBS containing 0.1% Tween 20. The membranes were probed with a horseradish peroxidase-conjugated goat anti-rabbit secondary antibody (Bio-Rad Laboratories) at a 1:20,000 dilution. Transferred proteins were visualized with a chemiluminescence detection system (Amersham Inc.).

A further assay deals with wild-type L cells. Kind of assay: TUNEL and annexin V apoptosis assays with grB and AD. Type of assay: cell-based, murine. On the procedure: (§1) For the in vitro killing assays, 10 pfu per cell of replication-deficient adenovirus (AD) were added subsequent to grB addition. Analysis of DNA fragmentation by TUNEL analysis has been described previously (Heibein et al., 1999). TUNEL materials (Roche Diagnostics) were used as per the manufacturer's instructions. Phosphatidylserine externalization was measured as previously described (Heibein et al., 1999) using annexin V-FITC (PharMingen). Percent specific TUNEL/annexin V positive cells was calculated as: [(% positive labeling cells with grB and AD-% positive labeling cells without grB and AD)/(100-% positive labeling cells without grB and AD)]×100.

In the next assay the test system is MPR^− cells. The assay is described as above. Type of assay: cell-based, murine. Conditions: 100 ng/ml grB and AD, 3 hr. Here is the method: as §1
Setting [2] is: all the carcinoma cell lines, 3 hr.

On to “grB: Human serine proteinase granzyme B purified from the cytolytic granules of YT-Indy cells”, for which the “ability to bind Jurkat cells” value with Jurkat cells (grB treated with catalytic subunit of protein phosphatase-1 (data not shown)) is given as “did not lose”; in the assay with Jurkat cells (grB-biotin treated with alkaline phosphatase in phosphate-free buffer), “marked reduction”. In addition, the grB uptake entry with CD-MPR^+ cells is reported as “essentially no grB uptake”. The “DNA fragmentation or phosphatidylserine externalization” value in assay [1] (MCF-7 cells, granzyme B and adenovirus) is “no DNA-fragmentation or phosphatidylserine externalization could be detected”. Further, the “phosphatidylserine exposure or DNA fragmentation” value in assay [1] (T47-D cells, granzyme B and adenovirus) was “unable to detect any phosphatidylserine exposure or DNA fragmentation”. For the same substance, the “annexin V binding after grB and AD” value in assay [1] (setting [2]) is “did not bind annexin V”. The “grB and AD-mediated DNA fragmentation” value in assay [1] (setting [2]) is given as “resistant”. In addition, the “cleavage of procaspase-3” value was “able to observe cleavage” in the assay on procaspase-3 (Jurkat cells), “unable to observe any cleavage” in the assay on procaspase-3 (MDA-MB-231 cells), “unable to observe any cleavage” with procaspase-3 (SK-BR-3 cells) and “able to observe cleavage” in the assay on procaspase-3 (T47-D cells). In addition, the results for the “TUNEL and annexin V positive cells” value with wild-type L cells (at later times (data not shown)) and in the assay on wild-type L cells (at the time-point of the assay (3 hr)) were about 100% and “about 30%”, respectively. Further, the “grB and AD-induced DNA fragmentation” value in the assay with MPR^− cells is given as “relatively resistant”.
